This passage reports inhibition of growth results from ChEMBL document CHEMBL3045269, “Anti-leukemic activity of sulfonoquinovosyldiacylglyceride (SQDG): a constituent of Azadirachta indica leaves” (Med Chem Res, 2013).

What all share (type): functional
The subject of test [1] is K562. Put plainly: Cytotoxicity against Homo sapiens (human) K562 cells assessed as growth inhibition at 2 ug/ml after 24 hr by MTT assay relative to untreated control. The following applies: K562, 24 h, read-out: GI.
In test [2] the test system is K562. Put plainly: Cytotoxicity against Homo sapiens (human) K562 cells assessed as growth inhibition at 2 ug/ml after 48 hr by MTT assay relative to untreated control. The following applies: K562, 48 h, read-out: GI. (Formazan colour is commonly taken as a measure of viable cells.)
The test system of test [3] is U-937. Put plainly: Cytotoxicity against Homo sapiens (human) U937 cells assessed as growth inhibition at 2 ug/ml after 48 hr by MTT assay relative to untreated control. The following applies: U-937, 48 h, read-out: GI.
Test [4] relates to U-937. Put plainly: Cytotoxicity against Homo sapiens (human) U937 cells assessed as growth inhibition at 2 ug/ml after 24 hr by MTT assay relative to untreated control. The note with it: U-937, 24 h, read-out: GI.

In the case of `Nc1ccn([C@@H]2O[C@H](CO)[C@@H](O)[C@@H]2O)c(=O)n1` [CYTARABINE], the inhibition of growth at 2 µg/mL in the test with K562 [1] was found to be 39.9%; in the test on K562 [2], 65.1%; in the test on U-937 [3] it was 85.1%; with U-937 [4], 59.9%.
